Data set [1] concerns HepaRG cells. Briefly: Total protein content of HepaRG monolayer cultures. In kind it is cell-based, human. The procedure:
(§1) For testing, the cells are seeded in 6-well and 24-well culture plates (Corning) in HepaRG media with different FBS batches or other differences in medium composition. After a 2 weeks proliferation phase, 2% of DMSO will be added to half of the cultures. After another 2 weeks of culturing, the confluence and morphology of the cultures will be assessed microscopically. Furthermore the +DMSO and −DMSO cell cultures in the 24-well plates will be tested for biochemical activity, i.e. urea production, ammonia elimination and protein content. The cultured cells are washed twice using phosphate buffered saline (PBS, NBPI International) and then incubated with test medium consisting of HepaRG culture medium supplemented with 1.5 mM ^15NH4Cl (Sigma), 2.75 mM D-galactose (Sigma), 2 mM ornithine hydrochloride (Sigma) and 2 mM L-lactate (Sigma). Medium samples are taken after 1 hr from the culture wells, as a reference, and after 24 hours. At the end of the test period the cells are washed three times using PBS and stored at −20° C. for protein determination. From the changes in concentration at t=1 hr and 24 hr of urea and ammonia an activity per hour and per mg protein/well is calculated. Quality of the cell-loaded bioreactors, measured by hepatocyte function at the start of the treatment, will be compared with values of primary hepatocytes that have been tested extensively in vitro in the past.
Total protein: Total protein was quantified by spectrometry using Coomassie blue (Bio-Rad).

For data set [2], the system named is HepaRG cells. Briefly: Urea production of HepaRG monolayer cultures. In kind it is cell-based, human. The procedure: For testing, the cells are seeded in 6-well and 24-well culture plates (Corning) in HepaRG media with different FBS batches or other differences in medium composition. After a 2 weeks proliferation phase, 2% of DMSO will be added to half of the cultures. After another 2 weeks of culturing, the confluence and morphology of the cultures will be assessed microscopically. Furthermore the +DMSO and −DMSO cell cultures in the 24-well plates will be tested for biochemical activity, i.e. urea production, ammonia elimination and protein content. […] Medium samples are taken after 1 hr from the culture wells, as a reference, and after 24 hours. At the end of the test period the cells are washed three times using PBS and stored at −20° C. for protein determination. From the changes in concentration at t=1 hr and 24 hr of urea and ammonia an activity per hour and per mg protein/well is calculated.
Urea: Urea concentrations of test medium samples are determined using the blood urea nitrogen test of Sigma Chemical Co according to the instructions of the manufacturer.
(§2) The HepaRG cells are cultured as indicated above in 24 well in presence or absence of 1 mM CG during the last 5 days. Next the cells are tested as indicated above in presence or absence of CG during 24 hours. To determine the conversion of ammonia into urea, the ^15N urea enrichment (single and double labeled) is measured in the test samples using mass-spectrometry. Similarly, HepG2 and cBAL111 cells were tested for their response to CG.

For data set [3], the system named is HepaRG cells. Briefly: AST and LDH leakage of HepaRG monolayer cultures. Format: cell-based, human. As to conditions: HepaRG monolayer +DMSO. The procedure: as §1
AST and LDH: Both AST and LDH activities are analyzed spectrophotometrically using a P800 Roche Diagnostics analyzer.
(In general: LDH leaks from cells whose membrane has failed.)

Data set [4] deals with HepaRG cells. Briefly: Galactose elimination of HepaRG monolayer cultures. In kind it is cell-based, human. Conditions: HepaRG monolayer +DMSO. As for the experimental part:
as §1

Data set [5] concerns HepaRG cells. Kind of data set: Lactate elimination/consumption of HepaRG monolayer cultures. Format: cell-based, human. The procedure:
as §1, with “At the end of the test period the cells are washed three times using PBS and stored at −20° C. for protein determination.” left out
Lactate and glucose concentration: Both are analyzed using a P800 analyzer (Roche Diagnostics).

In data set [6] the test system is HepaRG cells. Briefly: RT-PCR mRNA levels of hepatic genes in HepaRG monolayer cultures. In kind it is cell-based, human. The procedure: The HepaRG cells cultured in the 6-well plates are lysed and the RNA is isolated using the RNeasy kit (Qiagen). Next, real-time reverse transcriptase-polymerase chain reactions (RT-PCR) are performed to quantify mRNA levels of hepatic genes as well as 18S ribosomal RNA levels by RT-PCR.
First-strand cDNA is generated using a combination of 40 pmol of gene-specific RT-primers (see Table 1) and 134 units of Superscript III (Invitrogen) and 1 μg RNA in a total volume of 25 μl at 50° C. for one hour followed by a 15 min incubation at 70° C. The resulting gene-specific RT reaction mixtures are column purified using Qiaquick PCR Purification Kit (Qiagen).
Real-time PCR is performed using 1 μl of cDNA and LightCycler FastStart DNA Master SYBR® Green 1 reagent (Roche). PCR primers are depicted in the Table 3. The thermal cycling profile of the touchdown PCR is as follows: 94° C. for 10 min, followed by 40 cycles of 94° C. for 1 s, primer annealing at 68° C. for 7 s with a 0.5° C./cycle decrease until 63° C., and extension for 40 s at 72° C. PCR specificity is verified by melting curve analysis and agarose gel electrophoresis. The mRNA quantification is carried out by using the LinRegPCR programme (Ramakers et al.^17). For each sample the mRNA starting level is normalised for the 18S rRNA starting level. To correct for variations between RT-PCR runs, the mRNA starting levels of liver specific genes of NKNT-3 cells are additionally standardized for average mRNA starting levels of two liver samples that are simultaneously subjected to RT-PCR.

In data set [7] the test system is HepaRG cells. Kind of data set: Ammonia elimination of HepaRG monolayer cultures. In kind it is cell-based, human. As for the experimental part:
For testing, the cells are seeded in 6-well and 24-well culture plates (Corning) in HepaRG media with different FBS batches or other differences in medium composition. After a 2 weeks proliferation phase, 2% of DMSO will be added to half of the cultures. After another 2 weeks of culturing, the confluence and morphology of the cultures will be assessed microscopically. Furthermore the +DMSO and −DMSO cell cultures in the 24-well plates will be tested for biochemical activity, i.e. urea production, ammonia elimination and protein content. […] From the changes in concentration at t=1 hr and 24 hr of urea and ammonia an activity per hour and per mg protein/well is calculated. Quality of the cell-loaded bioreactors, measured by hepatocyte function at the start of the treatment, will be compared with values of primary hepatocytes that have been tested extensively in vitro in the past.
Ammonia: Ammonia concentrations are determined by an enzymatic kinetic colorimetric assay using glutamate dehydrogenase and NADPH, using the Ammonia (rapid) kit (Megazyme, Ireland) according to the instructions of the manufacturer.

The subject of data set [8] is HepaRG cells. Kind of data set: ApoA1 production of HepaRG monolayer cultures (ELISA). In kind it is cell-based, human. The procedure: as §1
ApoA1: Human ApoA1 concentrations are determined by ELISA using rabbit anti-human ApoA1 (1:500, Calbiochem, 178422), as first antibody, monoclonal mouse anti human ApoA1 (1:500, Calbiochem, 178472) as second antibody and polyclonal rabbit anti mouse IgG-HRP (1:2000, Dako Po 260) as third antibody.
A general note: ELISA stands for enzyme-linked immunosorbent assay.

Data set [9] concerns HepaRG cells. Kind of data set: 15N urea enrichment (conversion of ammonia into urea) in HepaRG monolayer cultures. Format: cell-based, human. As to conditions: HepaRG monolayer +DMSO, no CG. As for the experimental part:
as §1
^15N Urea: Single and Double labelled urea is measured in the test medium samples using mass-spectrometry.
as §2

The target in another data set is T1, Arginase II (Arg II) (Homo sapiens, UniProt P78540).
T1 construct: Arginase II (Arg II) mRNA and protein was expressed at high levels in C3A cells; endogenous in cells; host or cells: C3A cells (HepG2 sub-clone)
T1 sequence (P78540 23-354): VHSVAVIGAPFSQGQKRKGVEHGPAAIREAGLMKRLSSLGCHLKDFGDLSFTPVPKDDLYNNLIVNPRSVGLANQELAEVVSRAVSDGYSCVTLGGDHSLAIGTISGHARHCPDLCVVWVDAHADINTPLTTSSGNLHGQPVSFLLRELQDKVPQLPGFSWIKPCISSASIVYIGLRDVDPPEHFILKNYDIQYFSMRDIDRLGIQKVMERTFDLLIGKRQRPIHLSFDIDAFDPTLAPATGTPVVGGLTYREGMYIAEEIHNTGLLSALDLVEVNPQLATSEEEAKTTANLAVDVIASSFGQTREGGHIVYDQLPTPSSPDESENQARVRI
As to conditions: C3A cells; cited from earlier work.

[10] abbreviates: HepaRG monolayer, 2% DMSO last 2 weeks, no CG.
The mark [11] stands for this setting: HepaRG monolayer +DMSO, per well.
The mark [12] stands for this setting: HepaRG monolayer, DMSO treatment.

Where “and” joins values, the source holds several entries; their conditions need not be identical. Equal values may be shown once.

We go through two molecules from patent publication US8921108B2, “Differentiated human liver cell cultures and their use in bioartificial liver systems” (Academisch Ziekenhuis Bij de Universiteit van Amsterdam, priority 2009, dated 2014).

For the molecule `C[S+](C)[O-]` [DMSO, dimethylsulfoxide], the total protein/well with HepaRG cells [1] (setting [10]) turned out to be 109 ± 21 µg. Besides, in the data set on HepaRG cells [1] (HepaRG monolayer, deduced from total protein/well content and increased cell leakage), the “cells killed by DMSO treatment” value is recorded as “more than 50%”. Moreover, in the data set on HepaRG cells [1] (presence of DMSO, deduced from total protein content), the “effect on cell number” value is “drastically reduced”. For the same molecule, the “Urea production (absolute value)” value with HepaRG cells [2] (setting [11]) amounted to 0.8 ± 0.5 nmol/h. Further, in the data set with HepaRG cells [2] (setting [10]), the Urea production was 8.1 ± 6.8 nmol/h/mg protein and 6.0 ± 4.2 nmol/h/mg protein and 7.0 ± 7.0 nmol/h/mg protein. Moreover, in the data set on HepaRG cells [3], the “AST leakage (protein normalized)” value stood at 4.9 ± 2.4 mU/h/mg protein and the “LDH leakage (protein normalized)” value was found to be 21.2 ± 9.4 mU/h/mg protein. In addition, in the data set on HepaRG cells [3] (per well), the “AST leakage (absolute value)” value is recorded as 0.43 ± 0.08 mU/h and the “LDH leakage (absolute value)” value was determined as 1.87 ± 0.43 mU/h. Besides, the “Galactose elimination (protein normalized)” value in the data set with HepaRG cells [4] is 58 ± 17 nmol/h/mg protein. In the data set on HepaRG cells [4] (per well), the “Galactose elimination (absolute value)” value stood at 7.2 ± 1.8 nmol/h. The Lactate consumption result with HepaRG cells [5] (HepaRG monolayer +DMSO −CG) is on record as “production”. In addition, in the data set with HepaRG cells [5] (setting [10]), the Lactate elimination result was “production”. Besides, the “ArgII mRNA level” value in the data set on HepaRG cells [6] (HepaRG monolayer +DMSO −CG) is given as 718 ± 463 % of in vivo. Moreover, in the data set on HepaRG cells [6] (setting [10]), the “ALB mRNA level” value is 23 ± 4 % of in vivo and 22.7 ± 4.4 % of in vivo; the “ARG1 mRNA level” value was 5 ± 4 % of in vivo and 4.6 ± 3.7 % of in vivo; the “CPS mRNA level” value is 1.1 ± 0.4 % of in vivo; the “CYP2B6 mRNA level” value was 61 ± 30 % of in vivo and 60.7 ± 30.0 % of in vivo. In the data set on HepaRG cells [6] (setting [10]), the “CYP3A4 mRNA level” value was 69 ± 47 % of in vivo and 68.9 ± 47.2 % of in vivo; the “GS mRNA level” value was 90 ± 29 % of in vivo and 90.1 ± 29.1 % of in vivo; the “HNF4 mRNA level” value is 61 ± 21 % of in vivo and 60.8 ± 21.1 % of in vivo; the “PXR mRNA level” value is 42 ± 19 % of in vivo and 41.7 ± 19.2 % of in vivo. In the data set on HepaRG cells [6] (setting [12]), the “effect on CYP2B6 and 3A4 expression” value is “increased”; the “effect on expression of other hepatic genes tested” value is “either unaffected or decreased”. Also, the “effect on gene expression of synthetic and metabolic genes, as CPS and albumin and galactose elimination” value in the data set with HepaRG cells [6] (presence of DMSO) is reported as “inhibited”. Besides, the “Ammonia elimination (absolute value)” value in the data set on HepaRG cells [7] (setting [11]) was determined as 11.6 ± 4.3 nmol/h. Moreover, the Ammonia elimination with HepaRG cells [7] (setting [10]) is 107 ± 41 nmol/h/mg protein and 110 ± 49 nmol/h/mg protein. Further, the ApoA1 synthesis with HepaRG cells [8] (HepaRG monolayer +DMSO −CG) was 1.2 ± 1.1 ug/h/mg protein. Besides, the “ApoA1 production (absolute value)” value with HepaRG cells [8] (setting [11]) was determined as 0.11 ± 0.11 µg/h. In the data set on HepaRG cells [8] (setting [10]), this molecule displayed an ApoA1 production of 1.06 ± 0.95 μg/h/mg protein. In addition, in the data set with HepaRG cells [9], the 15N urea enrichment is 15.5 ± 8.4 % of total urea and 16.0 ± 8.4 % of total urea.
In the case of `N=C(NO)NCC[C@H](N)C(=O)O` [N^ω-hydroxy-nor-L-arginine], at Arginase II (Arg II), the “effect on Arginase II” value is reported as “inhibited” and the “effect on urea production” value was “prevented”.
